# Source: patent US8163724B2, “Glucocorticosteroids, processes for their preparation, pharmaceutical compositions containing them and their use in therapy” (AstraZeneca AB, priority 2007, dated 2012)
# Molecular target: T1, recombinant human GR (Homo sapiens, UniProt P04150)
# T1 construct: purchased Panvera/Invitrogen P2812 (kit P2893)
# T1 sequence (P04150 1-777): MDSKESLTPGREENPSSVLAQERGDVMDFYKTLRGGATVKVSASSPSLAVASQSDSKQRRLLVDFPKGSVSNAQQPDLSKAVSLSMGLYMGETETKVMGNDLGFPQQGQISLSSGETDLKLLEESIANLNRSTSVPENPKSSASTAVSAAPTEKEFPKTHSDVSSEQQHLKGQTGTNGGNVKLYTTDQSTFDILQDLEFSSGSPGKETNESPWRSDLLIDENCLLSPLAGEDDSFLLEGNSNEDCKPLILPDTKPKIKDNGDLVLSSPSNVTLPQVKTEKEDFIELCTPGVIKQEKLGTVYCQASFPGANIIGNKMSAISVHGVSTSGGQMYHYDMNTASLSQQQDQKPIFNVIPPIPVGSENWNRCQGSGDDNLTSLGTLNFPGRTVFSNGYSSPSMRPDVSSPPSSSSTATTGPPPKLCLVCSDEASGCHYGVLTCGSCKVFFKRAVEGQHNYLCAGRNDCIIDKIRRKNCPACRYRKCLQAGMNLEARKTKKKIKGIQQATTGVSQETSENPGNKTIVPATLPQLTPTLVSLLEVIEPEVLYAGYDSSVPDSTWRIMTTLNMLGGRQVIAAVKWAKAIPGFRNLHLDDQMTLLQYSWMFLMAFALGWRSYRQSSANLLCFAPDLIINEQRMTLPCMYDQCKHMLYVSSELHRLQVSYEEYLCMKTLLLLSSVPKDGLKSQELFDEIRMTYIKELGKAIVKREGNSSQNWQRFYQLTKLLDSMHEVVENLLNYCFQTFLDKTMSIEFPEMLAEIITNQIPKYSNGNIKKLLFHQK
# Test: Human Glucocorticoid Receptor (GR) Assay (fluorescence polarization, Panvera/Invitrogen kit)
# Type: binding
# Conditions: not given
# Summary of the method: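 Fluorescence polarization competition with recombinant GR and GS Red fluorescent ligand plus stabilizing peptide and DTT in potassium phosphate/sodium molybdate/EDTA buffer with DMSO. Incubated 2 hours at room temperature in the dark; 0% control DMSO, 100% control 10 μM dexamethasone.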
row,SMILES,IC50 [nM]
1,"C[C@]12Cc3cnn(-c4ccc(F)cc4)c3C=C1CC[C@@H]1[C@@H]2[C@@H](O)C[C@@]2(C)[C@H]1CC[C@]2(OC(=O)CF)C(=O)SCF [Example 28, (1R,3aS,3bS,10aR,10bS,11S,12aS)-1-{[(Fluoromethyl)thio]carbonyl}-7-(4-fluoro-phenyl)-11-hydroxy-10a,12a-dimethyl-1,2,3,3a,3b,4,5,7,10,10a,10b,11,12,12a-tetradecahydrocyclopenta[5,6]naphtho[1,2-f]indazol-1-yl fluoroacetate]",4.2

# Same assay, conditions: fluorescence polarization; GS Red tracer; 2 hours at room temperature; 100% control 10 μM Dexamethasone; read-out: Inhibition of GR binding, IC50
row,SMILES,IC50 [nM]
1,"C[C@]12Cc3cnn(-c4ccc(F)cc4)c3C=C1CC[C@H]1[C@@H]3CC[C@](OC(=O)c4ccco4)(C(=O)SCC#N)[C@@]3(C)C[C@H](O)[C@@]12F [Example 193, (1R,3aS,3bS,10aS,10bR,11S,12aS)-1-{[(Cyanomethyl)sulfanyl]carbonyl}-10b-fluoro-7-(4-fluorophenyl)-11-hydroxy-10a,12a-dimethyl-1,2,3,3a,3b,4,5,7,10,10a,11,12,12a-tetradecahydrocyclopenta[5,6]naphtho[1,2-f]indazol-1-yl furan-2-carboxylate]",3.3
2,"C[C@]12Cc3cnn(-c4ccc(F)cc4)c3C=C1CC[C@@H]1[C@@H]2[C@@H](O)C[C@@]2(C)[C@H]1CC[C@]2(OC(=O)C1CCOCC1)C(=O)SCCO [Example 127, (1R,3aS,3bS,10aR,10bS,11S,12aS)-7-(4-Fluorophenyl)-11-hydroxy-1-{[(2-hydroxyethyl)sulfanyl]carbonyl}-10a,12a-dimethyl-1,2,3,3a,3b,4,5,7,10,10a,10b,11,12,12a-tetradecahydrocyclopenta[5,6]naphtho[1,2-f]indazol-1-yl tetrahydro-2H-pyran-4-carboxylate]",3.7
3,"CSCOC(=O)[C@@]1(OCSC)CC[C@H]2[C@@H]3CCC4=Cc5c(cnn5-c5ccc(F)cc5)C[C@]4(C)[C@H]3[C@@H](O)C[C@@]21C [Example 120, (Methylsulfanyl)methyl(1R,3aS,3bS,10aR,10bS,11S,12aS)-7-(4-fluorophenyl)-11-hydroxy-10a,12a-dimethyl-1-[(methylsulfanyl)methoxy]-1,2,3,3a,3b,4,5,7,10,10a,10b,11,12,12a-tetradecahydrocyclopenta[5,6]naphtho[1,2-f]indazole-1-carboxylate]",7
4,"Cc1nnsc1C(=O)O[C@]1(C(=O)SCF)CC[C@H]2[C@@H]3CCC4=Cc5c(cnn5-c5ccc(F)cc5)C[C@]4(C)[C@H]3[C@@H](O)C[C@@]21C [Example 4, (1R,3aS,3bS,10aR,10bS,11S,12aS)-1-{[(Fluoromethyl)thio]carbonyl}-7-(4-fluorophenyl)-11-hydroxy-10a,12a-dimethyl-1,2,3,3a,3b,4,5,7,10,10a,10b,11,12,12a-tetradecahydrocyclopenta[5,6]naphtho[1,2-f]indazol-1-yl 4-methyl-1,2,3-thiadiazole-5-carboxylate]",5.9
5,"C[C@]12Cc3cnn(-c4ccc(F)c(CO)c4)c3C=C1CC[C@@H]1[C@@H]2[C@@H](O)C[C@@]2(C)[C@H]1CC[C@]2(OC(=O)C1CC1)C(=O)SCC#N [Example 144, (1R,3aS,3bS,10aR,10bS,11S,12aS)-1-{[(Cyanomethyl)sulfanyl]carbonyl}-7-[4-fluoro-3-(hydroxymethyl)phenyl-]-11-hydroxy-10a,12a-dimethyl-1,2,3,3a,3b, 4,5,7,10,10a,11,12,12a-tetradecahydrocyclopenta[5,6]naphtho[1,2-f]indazol-1-yl Cyclopropanecarboxylate]",3.8
6,"CSC(=O)[C@@]1(OC(=O)C2CC2)CC[C@H]2[C@@H]3CCC4=Cc5c(cnn5-c5ccc(F)nc5)C[C@]4(C)[C@H]3[C@@H](O)C[C@@]21C [Example 153, (1R,3aS,3bS,10aR,10bS,11S,12aS)-7-(6-Fluoropyridin-3-yl)-11-hydroxy-10a,12a-dimethyl-1-[(methylsulfanyl)carbonyl]-1,2,3,3a,3b,4,5,7,10,10a,10b,11,12,12a-tetradecahydrocyclopenta[5,6]naphtho[1,2-f]indazol-1-yl cyclopropanecarboxylate]",2.4
7,"CCC(=O)O[C@]1(C(=O)SCC#N)CC[C@H]2[C@@H]3C[C@H](C)C4=Cc5c(cnn5-c5ccc(F)cc5)C[C@]4(C)[C@H]3[C@@H](O)C[C@@]21C [Example 213, (1R,3aS,3bS,5S,10aR,10bS,11S,12aS)-1-{[(Cyanomethyl)sulfanyl]carbonyl}-7-(4-fluorophenyl)-11-hydroxy-5,10a,12a-trimethyl-1,2,3,3a,3b,4,5,7,10,10a,10b,11,12,12a-tetradecahydrocyclopenta[5,6]naphtho[1,2-f]indazol-1-yl propanoate]",11
8,"Cc1occc1C(=O)O[C@]1(C(=O)SCC#N)CC[C@H]2[C@@H]3CCC4=Cc5c(cnn5-c5ccc(F)cc5)C[C@]4(C)[C@H]3[C@@H](O)C[C@@]21C [Example 53, (1R,3aS,3bS,10aR,10bS,11S,12aS)-1-{[(Cyanomethyl)sulfanyl]carbonyl}-7-(4-fluoro-phenyl)-11-hydroxy-10a,12a-dimethyl-1,2,3,3a,3b,4,5,7,10,10a,10b,11,12,12a-tetradecahydrocyclopenta[5,6]naphtho[1,2-f]indazol-1-yl 2-methylfuran-3-carboxylate]",9
9,"CSC(=O)[C@@]1(O)CC[C@H]2[C@@H]3CCC4=Cc5c(cnn5-c5ccc(F)nc5)C[C@]4(C)[C@H]3[C@@H](O)C[C@@]21C [Example 165, S-Methyl(1R,3aS,3bS,10aR,10bS,11S,12aS)-7-(6-fluoropyridin-3-yl)-1,11-dihydroxy-10a,12a-dimethyl-1,2,3,3a,3b,4,5,7,10,10a,10b,11,12,12a-tetradecahydrocyclopenta[5,6]naphtho[1,2-f]indazole-1-carbothioate]",3.8
10,"C[C@]12Cc3cnn(-c4ccc(F)nc4)c3C=C1CC[C@@H]1[C@@H]2[C@@H](O)C[C@@]2(C)[C@H]1CC[C@]2(OC(=O)C1CC1)C(=O)SCC#N [Example 152, (1R,3aS,3bS,10aR,10bS,11S,12aS)-1-{[(Cyanomethyl)sulfanyl]carbonyl}-7-(6-fluoropyridin-3-yl)-11-hydroxy-10a,12a-dimethyl-1,2,3,3a,3b,4,5,7,10,10a,10b,11,12,12a-tetradecahydrocyclopenta[5,6]naphtho[1,2-f]indazol-1-yl cyclopropanecarboxylate]",7
11,"CC(=O)CSC(=O)[C@@]1(OC(=O)c2ccco2)CC[C@H]2[C@@H]3CCC4=Cc5c(cnn5-c5ccc(F)cc5)C[C@]4(C)[C@H]3[C@@H](O)C[C@@]21C [Example 89, (1R,3aS,3bS,10aR,10bS,11S,12aS)-7-(4-Fluorophenyl)-11-hydroxy-10a,12a-dimethyl-1-{[(2-oxopropyl)sulfanyl]carbonyl}-1,2,3,3a,3b,4,5,7,10,10a,10b,11,12,12a-tetradecahydrocyclopenta[5,6]naphtho[1,2-f]indazol-1-yl furan-2-carboxylate]",6.9
